Each structure is given as a SMILES string. A value given as a limit tells only on which side of the number the result lay.

Experimental findings from patent US20160106711A1, “3-3-Di-Substituted-Oxindoles as Inhibitors of Translation Initiation” (President and Fellows of Harvard College, priority 2012, published 2016) are described below.

Assay [1] relates to CRL-2351. Nature of the assay: Cell growth assay (sulforhodamine B), CRL-2351 cells. It counts as cell-based, human. The conditions noted are these: 5 days, SRB. On the procedure:
(§1) Adherent mouse (KLN) and human solid tumor cells (CRL-2351, and CRL-2813) were plated in 96-well plates and maintained for 5 days in the presence of 0.54 to 6 μM of individual compound, and cell proliferation was measured by the sulforhodamine B (SRB) assay as described in ref. 11: briefly, cells were fixed in 10% cold trichloroacetic acid at 4° C. for 1 h, extensively washed with double-distilled H2O and air-dried. Plates were then incubated with 0.4% SRB in 1% acetic acid for 1 h, washed with 1% acetic acid to remove the unbound dye, and air-dried. The bound dye was solubilized by addition of 10 mM Tris (pH 10), and the absorbance was determined in a Titertek Multiscan plate reader at 490 nm. The data calculations were carried out as described (the values for mean±SD of data from replicate wells are calculated): data are expressed in terms of % T/C [(OD of treated cells/OD of control cells)×100], as a measure of cell viability and survival in the presence of test materials. Calculations are also made for the concentration of test agents giving a T/C value of 50%, or 50% growth inhibition (IC50). With the SRB assay, a measure is made of the cell population density at time 0 (the time at which drugs are added) from two extra reference plates of inoculated cells fixed with TCA just prior to drug addition to the test plates. Thus, we have three measurements: control optical density (C), test optical density (T), and optical density at time zero (T0). The calculation is 100×[(T−T0)/(C−T0)]. If T is less than T0, cell killing has occurred and can be calculated from 100×[(T−T0)/T0]. Thus, for each drug-cell line combination, a dose-response curve is generated and three levels of effect are calculated.

In assay [2] the test system is eIF2•GTP•Met-tRNAi ternary complex. The experiment in a line: Ternary complex assay (ATF-4 assay), dual luciferase firefly/renilla ratio. It is filed as cell-based, mouse. The conditions noted are these: for maximal fold induction at 40 µM / maximal fold induction at 80 µM / maximal fold induction at 20 µM: Mus musculus; for maximal fold induction at 40 µM: read-out: ATF-4 Xmax @ 40 μM; for maximal fold induction at 80 µM / maximal fold induction at 20 µM: read-out: ATF-4 Xmax. An excerpt:
For assay development, a bi-directional plasmid was designed in which a common promoter/enhancer complex drives the transcription of firefly luciferase (F-luc) ORF fused to the 5′ untranslated region (UTR) of ATF-4, and of the renilla luciferase (R-luc) ORF fused to a 90-nucleotide 5′ UTR derived from the plasmid (FIG. 6A). Because the tetracycline-regulated transactivator ((tTA), required for driving transcription from this vector) is not normally expressed in the mammalian cells, stable KLN cancer cells were constructed that expressed tTA (KLN-tTA).
The KLN-tTA colonies that drove expression of reporter genes from pBISA-DL plasmid were selected by transient transfection and dual luciferase assay. One of these KLN-tTA cell lines was transfected with the pBISA-DL^(ATF-4) expression vector, stable colonies were selected by dual luciferase assay and expanded.
Plasmids and Ternary Complex Assay
(ATF-4 Assay). Briefly, bi-directional mammalian expression vector pBI (Clontech, CA) was modified to expand the multiple cloning sites (MCSs) and designated thereafter as pBISA. This vector contains seven copies of the tetracycline-regulated transactivator response element (TRE), which together act as core promoter/enhancer. The TRE is flanked on both sides by minimal human cytomegalovirus (CMV) minimal promoters allowing bi-directional transcription and two MCSs. Firefly and renilla luciferases were subcloned into MCS-I and MCS-II, respectively. This plasmid, designated pBISA-DL, transcribes two mRNAs that contain the 90 nucleotide plasmid derived 5′UTR (same sequence in both mRNAs), and the ORF encoding either firefly or renilla luciferase followed by a polyadenylation sequence as described in Ziegeler, G.; Ming, J.; Koseki, J. C.; Sevinc, S.; Chen, T.; Ergun, S.; Qin, X.; Aktas, B. H. J. Biol. Chem. 2010, 285, 15408 hereby incorporated by reference. This plasmid was further modified by inserting the 5′UTR of ATF-4 into MCS-I in front of the firefly luciferase mRNA. Transcription from this direction generates an mRNA that contains the firefly luciferase ORF preceded by a 5′UTR composed of 90 nucleotides derived from the plasmid and 267 nucleotides derived from the 5′UTR of ATF-4 mRNA. Transcription from the other direction generates an mRNA that contains the renilla luciferase ORF proceeded only by the 90-nucleotide plasmid-derived sequence in the 5′UTR. This expression plasmid is called pBISA-DL(ATF-4). In the dual luciferase assay, cells expressing firefly and renilla luciferases were lysed and the extracts assayed with a Dual-Glo Luciferase assay kit, per manufacturer's instruction (Promega Inc., Madison, Wis.). The data calculations were carried out as the ratio of firefly to renilla luciferase signal as described in Chen, T.; Ozel, D.; Qiao, Y.; Harbinski, F.; Chen, L.; Denoyelle, S.; He, X.; Zvereva, N.; Supko, J. G.; Chorev, M.; Halperin, J. A.; Aktas, B. H. Nat. Chem. Biol. 2011, 7, 610 hereby incorporated by reference.

Assay [3] deals with KLN. The experiment in a line: Cell growth assay (sulforhodamine B), KLN cells. It counts as cell-based, mouse. The following applies: 5 days, SRB. On the procedure: as §1, with “Adherent mouse (KLN) and human solid tumor cells (CRL-2351, and CRL-2813) were plated in 96-well plates and maintained for 5 days in the presence of 0.54 to 6 μM of individual compound, and cell proliferation was measured by the sulforhodamine B (SRB) assay as described in ref. 11: briefly, cells were fixed in 10% cold trichloroacetic acid at 4° C. for 1 h, extensively washed with double-distilled H2O and air-dried.” left out

The test system of assay [4] is CRL-2813. Nature of the assay: Cell growth assay (sulforhodamine B), CRL-2813 cells. It counts as cell-based, human. The following applies: 5 days, SRB. How it is done:
as §1

As a reminder, the IC50 is the concentration at which inhibition is half-maximal. In the case of `CC(C)(C)c1ccc(O)c(C2(c3ccccc3)C(=O)Nc3ccc(OC(F)(F)F)cc32)c1` (centres unmarked) [Sd224], the half-inhibitory concentration (IC50) in assay [1] (Homo sapiens, 120 h) amounted to 2.5 ± 0.9 µM; in assay [3] (Mus musculus, 120 h) it was 8 µM; in assay [4] (Homo sapiens, CRL2813, 120 h), 1 µM. The maximal fold induction at 40 µM in assay [2] stood at 2.56 ± 0.3.

As for `CC(C)(C)c1ccc(O)c(C2(c3cccnc3)C(=O)Nc3ccccc32)c1` (centres unmarked) [HY003, 3-(5-tert-Butyl-2-Hydroxyphenyl)-3-(Pyridin-3-yl)Indolin-2-One], the half-inhibitory concentration (IC50) is 6.4 ± 3 µM in assay [1] (Homo sapiens, 120 h); above 20 µM in assay [3] (Mus musculus, 120 h); 11.5 ± 1.8 µM in assay [4] (Homo sapiens, CRL2813, 120 h). In addition, the maximal fold induction at 80 µM in assay [2] (80 uM) came to 1.67.

Regarding `COc1ccc(C2(c3cc(C(C)(C)C)ccc3O)C(=O)Nc3ccc(OC)cc32)cc1` (centres unmarked) [Sd184], the concentration for half-maximal inhibition (IC50) was found to be 2.9 ± 0.3 µM in assay [1] (Homo sapiens, 120 h); 14.3 ± 3 µM in assay [3] (Mus musculus, 120 h); 11.1 ± 1.1 µM in assay [4] (Homo sapiens, CRL2813, 120 h). The maximal fold induction at 40 µM in assay [2] turned out to be 4 ± 0.36.

Regarding `COc1ccc(C2(c3cc(C(C)(C)C)ccc3OCCN3CCOCC3)C(=O)Nc3ccccc32)cc1` (centres unmarked) [Sd139, 3-{5-tert-butyl-2-[2-(morpholin-4-yl)ethoxy]phenyl}-3-(4-methoxyphenyl)-indol-2-one], the IC50 in assay [1] (Homo sapiens, 120 h) stood at 2.65 ± 1.5 µM; in assay [3] (Mus musculus, 120 h), 4.3 ± 1 µM; in assay [4] (Homo sapiens, CRL2813, 120 h), 2.4 ± 0.9 µM. Also, the maximal fold induction at 40 µM in assay [2] was determined as 6.3 ± 0.3.

For `O=C1Nc2ccccc2C1(c1ccccc1)c1cc(C2CCCC2)ccc1O` (centres unmarked) [Compound 1289, reference compound], the IC50 in assay [1] (Homo sapiens, 120 h) was found to be 3.2 ± 1 µM; in assay [3] (Mus musculus, 120 h), 16 ± 2.2 µM; in assay [4] (Homo sapiens, CRL2813, 120 h), 2.5 ± 0.3 µM. Also, the maximal fold induction at 40 µM in assay [2] was determined as 2.87 ± 2.19.

Take `CC(C)(C)c1ccc(O)c(C2(c3cc(C(C)(C)C)ccc3OCCBr)C(=O)Nc3ccccc32)c1` (centres unmarked) [HY083]: the IC50 in assay [1] (Homo sapiens, 120 h) is 2.4 ± 1.6 µM; in assay [3] (Mus musculus, 120 h), 11.4 ± 2.2 µM; in assay [4] (Homo sapiens, CRL2813, 120 h), 1 ± 0.9 µM. The maximal fold induction at 40 µM in assay [2] came to 12.9 ± 2.11.

`CN(C)c1ccc(C2(c3cc(C(C)(C)C)ccc3OCCN3CCOCC3)C(=O)Nc3ccccc32)cc1` (centres unmarked) [Sd154, 3-{5-tert-butyl-2-[2-(morpholin-4-yl)ethoxy]phenyl}-3-[4-(dimethylamino)phenyl]-indol-2-one]: the IC50 worked out at 4.7 ± 0.3 µM in assay [1] (Homo sapiens, 120 h); 2.2 ± 0.6 µM in assay [3] (Mus musculus, 120 h); 7.5 ± 1 µM in assay [4] (Homo sapiens, CRL2813, 120 h). In assay [2], the maximal fold induction at 40 µM was found to be 7.15 ± 0.49.

For `CN(C)CCOc1ccc(C(C)(C)C)cc1C1(c2cc(C(C)(C)C)ccc2O)C(=O)Nc2ccccc21` (centres unmarked) [HY077], the IC50 was 1.9 ± 1 µM in assay [1] (Homo sapiens, 120 h); 1.7 ± 0.9 µM in assay [3] (Mus musculus, 120 h); 1.2 ± 0.4 µM in assay [4] (Homo sapiens, CRL2813, 120 h). In assay [2], the maximal fold induction at 20 µM came to 4.65 ± 0.88.

With `CC(C)(C)c1ccc(O)c(C2(c3ccc(O)cc3)C(=O)Nc3c2ccc(F)c3F)c1` (centres unmarked) [Sd141], the half-inhibitory concentration (IC50) in assay [1] (Homo sapiens, 120 h) was above 20 µM; in assay [3] (Mus musculus, 120 h), 15.3 ± 1.9 µM; in assay [4] (Homo sapiens, CRL2813, 120 h), 10.7 ± 3.9 µM. Further, the maximal fold induction at 40 µM in assay [2] amounted to 2.9 ± 0.6.

In the case of `CN(C)CCN1C(=O)C(c2cc(C(C)(C)C)ccc2O)(c2cc(C(C)(C)C)ccc2O)c2ccccc21` [HY087], the IC50 is 2.7 ± 0.2 µM in assay [1] (Homo sapiens, 120 h); above 20 µM in assay [3] (Mus musculus, 120 h); above 20 µM in assay [4] (Homo sapiens, CRL2813, 120 h). Besides, the maximal fold induction at 20 µM in assay [2] stood at 7.12 ± 1.3.

Regarding `CC(=O)OCCOc1ccc(C(C)(C)C)cc1C1(c2cc(C(C)(C)C)ccc2O)C(=O)Nc2ccccc21` (centres unmarked) [HY084], the half-inhibitory concentration (IC50) amounted to 2.7 ± 0.2 µM in assay [1] (Homo sapiens, 120 h); 11.4 ± 0.2 µM in assay [3] (Mus musculus, 120 h); 1.6 ± 0.4 µM in assay [4] (Homo sapiens, CRL2813, 120 h). In assay [2] (80 uM), the maximal fold induction at 80 µM was found to be 11.4 ± 0.4. Also, in assay [2], the maximal fold induction at 40 µM stood at 8.59 ± 1.67.

Regarding `CCOC(=O)COc1ccccc1C1(c2cc(C(C)(C)C)ccc2OCC(=O)OCC)C(=O)Nc2ccccc21` (centres unmarked) [HY067], the results for the IC50 in assay [1], in assay [3] and in assay [4] were 2.1 ± 1.1 µM, 19.8 ± 1.3 µM and 0.24 µM, respectively. In addition, the “ATF-4 Xmax” value in assay [2] (80 uM) was 1.19 ± 0.19/80 uM.

Take `CC(C)(C)c1cccc(C2(c3cc(C(C)(C)C)ccc3O)C(=O)N(CCBr)c3ccccc32)c1` (centres unmarked) [HY283]: the IC50 in assay [1] (Homo sapiens, 120 h) is 1.5 ± 0.7 µM; in assay [3] (Mus musculus, 120 h), above 20 µM; in assay [4] (Homo sapiens, CRL2813, 120 h) it was 1.4 ± 0.4 µM. Moreover, the maximal fold induction at 40 µM in assay [2] was 9.6 ± 0.16.
